The text below walks through data of ChEMBL document CHEMBL1201862, “PubChem BioAssay data set” (2004).

Molecules are shown by their SMILES.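 Results reflect a 48-hour exposure of cells in 96-well plates to compound at five concentrations. GI50: concentration for 50% inhibition of growth.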 Calls of active or inactive are those of the source. No stated cut-off is given here; in the data, active = GI50 up to about 1.1 µM and inactive = higher.

Among the test systems are A498; ACHN; CCRF-CEM; COLO 205; EKVX; Hs-578T; IGROV-1; LOX IMVI; MOLT-4; OVCAR-5; SF-268; SK-MEL-28; SK-OV-3; SN12C; SNB-75; SR; T47D; U-251; NCI-H226; UACC-257.
Assay in all cases: NCI anticancer screen, dose series, 48 h

`O=C(O)CSC1=NCCN1`: the GI50 in the assay on A498, with ACHN, in the assay on CCRF-CEM, in the assay on COLO 205, in the assay on EKVX and in the assay with Hs-578T was > 100 µM (inactive) in each case. The GI50 in the assay on IGROV-1, in the assay on LOX IMVI, in the assay on MOLT-4, with OVCAR-5, in the assay on SF-268 and in the assay on SK-MEL-28 was > 100 µM (inactive) throughout. For the same compound, the GI50 with SK-OV-3, in the assay with SN12C, in the assay on SNB-75, in the assay with SR, in the assay on T47D and in the assay on U-251 was > 100 µM (inactive) in each case.

On to `NC(=O)C(c1ccccc1)N1OC2C(=O)N(c3cccc4ccccc34)C(=O)C2C1c1c2ccccc2c(Cl)c2ccccc12` (stereo not drawn), for which the GI50 with A498 was 14.6 µM (inactive); in the assay with ACHN it was 8.91 µM (inactive); in the assay with COLO 205, 7.85 µM (inactive); in the assay on EKVX, 11.6 µM (inactive); in the assay with Hs-578T, 18.6 µM (inactive); with IGROV-1, 11.7 µM (inactive). Moreover, the GI50 was 6.1 µM (inactive) in the assay with LOX IMVI; 1.44 µM (inactive) with MOLT-4; 6.25 µM (inactive) in the assay with NCI-H226; 9.66 µM (inactive) with OVCAR-5; 9.1 µM (inactive) in the assay on SF-268; 12.8 µM (inactive) in the assay with SK-MEL-28. The GI50 with SK-OV-3 was 19 µM (inactive); in the assay on SN12C it was 8.47 µM (inactive); in the assay on SNB-75 it was 8.97 µM (inactive); in the assay with SR, 1.21 µM (inactive); in the assay with T47D, 8.93 µM (inactive); in the assay with U-251 it was 7.57 µM (inactive). Further, the GI50 in the assay on UACC-257 is 5.18 µM (inactive).

`CC1=NN(C(=O)c2ccccc2O)C(=O)/C1=C/c1ccc([N+](=O)[O-])cc1`: the GI50 in the assay with A498 was 0.0419 µM (active); with ACHN, 0.106 µM (active); in the assay on CCRF-CEM, 0.407 µM (active); with COLO 205 it was 16.5 µM (inactive); with EKVX, 1.2 µM (inactive); with Hs-578T, 0.348 µM (active). Moreover, the GI50 with IGROV-1 was 0.0635 µM (active); in the assay with LOX IMVI, 0.267 µM (active); with NCI-H226 it was 0.459 µM (active); in the assay on OVCAR-5 it was 3.12 µM (inactive); in the assay on SF-268 it was 0.0855 µM (active); with SK-MEL-28, 31.6 µM (inactive). The GI50 in the assay on SK-OV-3 was 0.0966 µM (active); in the assay with SN12C it was 0.372 µM (active); in the assay with SNB-75 it was 0.248 µM (active); in the assay with SR, 0.473 µM (active); in the assay with T47D it was 1.89 µM (inactive); with U-251 it was 0.0991 µM (active). Also, the GI50 with UACC-257 is 1.91 µM (inactive).

Regarding `COc1cccc(C=C2N=C(C)N(n3c(-c4ccccc4)nc4ccccc4c3=O)C2=O)c1`, the GI50 was > 100 µM (inactive) in the assay with A498; > 100 µM (inactive) in the assay with ACHN; 57.5 µM (inactive) in the assay on CCRF-CEM; > 100 µM (inactive) in the assay with COLO 205; > 100 µM (inactive) with EKVX; > 100 µM (inactive) with Hs-578T. For the same compound, the GI50 with IGROV-1 is > 100 µM (inactive); in the assay on LOX IMVI it was > 100 µM (inactive); in the assay on MOLT-4 it was 94.4 µM (inactive); with NCI-H226, > 100 µM (inactive); with SF-268, > 100 µM (inactive); in the assay with SK-MEL-28, > 100 µM (inactive). In addition, the GI50 in the assay on SK-OV-3 was > 100 µM (inactive); in the assay on SN12C, > 100 µM (inactive); in the assay on SNB-75, 56.1 µM (inactive); in the assay with SR it was 64.9 µM (inactive); in the assay with T47D, > 100 µM (inactive); with UACC-257 it was > 100 µM (inactive).

On to `Cc1ccc2occ/c(=N\Nc3ccccc3)c2c1`, for which the GI50 in the assay on A498 is 76.6 µM (inactive); with ACHN, > 100 µM (inactive); in the assay on CCRF-CEM, > 100 µM (inactive); with COLO 205, 41.1 µM (inactive); with EKVX, 18.6 µM (inactive); in the assay on Hs-578T, 65.3 µM (inactive). The GI50 in the assay with IGROV-1 is 7.83 µM (inactive); with LOX IMVI it was 66.2 µM (inactive); with NCI-H226, 29.9 µM (inactive); with OVCAR-5, 59.4 µM (inactive); in the assay with SF-268, > 100 µM (inactive); in the assay with SK-MEL-28 it was 62.2 µM (inactive). Also, the GI50 with SK-OV-3 is 59.6 µM (inactive); in the assay with SN12C, > 100 µM (inactive); with SNB-75, 24.3 µM (inactive); in the assay on SR, 37.8 µM (inactive); with T47D it was 1.33 µM (inactive); in the assay with U-251, 66.1 µM (inactive). In the assay with UACC-257, the GI50 is > 100 µM (inactive).

Regarding `O=C(Cn1c(=O)oc2ccc(C(=O)c3ccc(F)cc3)cc21)c1ccc([N+](=O)[O-])cc1`, the GI50 in the assay on A498 was 25.5 µM (inactive); with ACHN, 35 µM (inactive); in the assay with CCRF-CEM, 19.1 µM (inactive); in the assay on COLO 205, 26.9 µM (inactive); in the assay on Hs-578T, 20.4 µM (inactive); in the assay on IGROV-1, 24.3 µM (inactive). The GI50 is 34.8 µM (inactive) with LOX IMVI; 18.2 µM (inactive) in the assay on MOLT-4; 27.3 µM (inactive) in the assay with NCI-H226; > 100 µM (inactive) in the assay with OVCAR-5; 45 µM (inactive) with SF-268; 45.3 µM (inactive) with SK-MEL-28. Besides, the GI50 in the assay on SK-OV-3 was 69.8 µM (inactive); with SN12C, 60.3 µM (inactive); in the assay with SNB-75, 36.9 µM (inactive); in the assay on SR, 12.6 µM (inactive); in the assay with T47D, 24.7 µM (inactive); with U-251, 34.3 µM (inactive). Besides, the GI50 in the assay on UACC-257 is 60.3 µM (inactive).

Regarding `C=CCSc1nc2ccccc2c(=O)n1Cc1ccco1`, the GI50 with A498, in the assay on ACHN, in the assay with COLO 205, in the assay on EKVX, in the assay on Hs-578T and in the assay with IGROV-1 was > 100 µM (inactive) each time. Moreover, the GI50 in the assay on LOX IMVI, in the assay with NCI-H226, in the assay with OVCAR-5, with SF-268, with SK-MEL-28 and in the assay on SK-OV-3 was > 100 µM (inactive) throughout. The GI50 in the assay on SN12C was > 100 µM (inactive); with SNB-75, 89.1 µM (inactive); in the assay on SR it was 47 µM (inactive); in the assay with T47D, 29.1 µM (inactive); with U-251, > 100 µM (inactive); with UACC-257 it was > 100 µM (inactive).

Consider `CC(C)(C)COC1C2(OCCO2)C2CCC1(C)C2(C)C` (stereo not drawn), for which the GI50 is > 100 µM (inactive) in the assay on A498; 20.4 µM (inactive) in the assay on ACHN; 18.8 µM (inactive) with CCRF-CEM; 28.6 µM (inactive) in the assay on COLO 205; 33.7 µM (inactive) in the assay with EKVX; 18.8 µM (inactive) in the assay with Hs-578T. The GI50 in the assay on IGROV-1 was 82.8 µM (inactive); with LOX IMVI, 19.2 µM (inactive); in the assay with MOLT-4, 21.4 µM (inactive); with NCI-H226 it was 27.4 µM (inactive); in the assay with OVCAR-5, 28.9 µM (inactive); in the assay on SF-268 it was 50.2 µM (inactive). The GI50 in the assay with SK-MEL-28 was 87.1 µM (inactive); in the assay with SK-OV-3, 66.2 µM (inactive); in the assay on SNB-75, 24.1 µM (inactive); in the assay with SR, 21.6 µM (inactive); with T47D, 23.8 µM (inactive); in the assay with U-251 it was 18 µM (inactive). In addition, in the assay on UACC-257, the GI50 was 24.9 µM (inactive).

In the case of `C(=N\c1ccc(-c2nc3ccccc3[nH]2)cc1)/c1ccc[nH]1`, the GI50 in the assay with A498 was 69.5 µM (inactive); with ACHN it was > 100 µM (inactive); with CCRF-CEM, 11.4 µM (inactive); with COLO 205, 41.3 µM (inactive); with EKVX it was > 100 µM (inactive); with Hs-578T, 4.3 µM (inactive). For the same compound, the GI50 was > 100 µM (inactive) in the assay with IGROV-1; 76.6 µM (inactive) in the assay on LOX IMVI; 28.8 µM (inactive) with MOLT-4; > 100 µM (inactive) with OVCAR-5; 30.3 µM (inactive) in the assay on SF-268; > 100 µM (inactive) in the assay on SK-MEL-28. Also, the GI50 in the assay on SN12C is 63.2 µM (inactive); in the assay on SNB-75, > 100 µM (inactive); in the assay with SR it was 33.1 µM (inactive); in the assay with T47D, 40.3 µM (inactive); with UACC-257 it was > 100 µM (inactive).

`CCOC(=O)NNC(=O)NCc1ccccc1CNC(=O)NNC(=O)OCC`: the GI50 in the assay with A498, in the assay on CCRF-CEM, in the assay on COLO 205, in the assay on EKVX, with Hs-578T and with IGROV-1 was > 100 µM (inactive) each time. In addition, the GI50 with LOX IMVI, in the assay with MOLT-4, with NCI-H226, in the assay on OVCAR-5, with SF-268 and in the assay with SK-MEL-28 was > 100 µM (inactive) each time. For the same compound, the GI50 in the assay on SK-OV-3, with SN12C, in the assay with SNB-75, in the assay on SR, in the assay with T47D and in the assay with U-251 was > 100 µM (inactive) each time. Also, the GI50 in the assay on UACC-257 is > 100 µM (inactive).

As for `COC(=O)C1(O)C(c2ccccc2)=NC2(C)CCCC21` (stereo not drawn), the GI50 in the assay on A498, in the assay with CCRF-CEM, in the assay on COLO 205, in the assay with Hs-578T, in the assay on IGROV-1 and in the assay with LOX IMVI was > 100 µM (inactive) throughout. Besides, the GI50 in the assay on MOLT-4, in the assay with NCI-H226, in the assay on OVCAR-5, in the assay on SF-268, in the assay with SK-MEL-28 and in the assay with SK-OV-3 was > 100 µM (inactive) in each case. Further, the GI50 with SN12C, in the assay on SNB-75, in the assay with SR, in the assay with T47D, in the assay on U-251 and in the assay on UACC-257 was > 100 µM (inactive) in each case.
